The text below walks through data of patent US12466821B2 (Novartis AG, priority 2018, dated 2025).

Test [1] deals with human HSV DNA polymerase UL30 (Human herpesvirus 1 (strain 17) (HHV-1) (Human herpes simplex virus 1), UniProt P04293). The experiment in a line: HSV polymerase biochemical assay (molecular beacon-based). In a few lines:
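Readout was beacon fluorescence (ex 480, em 535 nm), used to derive IC50. Each dNTP was at 1.25 uM, with 200 nM primer and 100 nM beacon, after a 30-min RT inhibitor preincubation. Enzyme was 625 pM for HSV UL30 (20 min RT reaction) or 100 pM for CMV UL54 (60 min RT), both sf9-expressed MBP fusions, in pH 7.5 Tris buffer with MgCl2.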

Test [2] has as its system Luciferase-encoding HCMV, AD169 strain. The test is described as follows: CMV Luciferase assay (cellular herpesvirus replication). The format is cell-based. In outline:
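Neonatal human dermal fibroblasts were pretreated 1 h with compound (final 0.0159–50 μM or 0.00318–10 μM, 0.5% DMSO), then infected at MOI 1 with AD169 carrying pp28-promoter luciferase. After 72 h at 37 °C, Renilla-Glo luminescence normalized to no-virus and virus-only controls; EC50 by 4-parameter logistic model.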

Each structure is given as a SMILES string. Like-named read-outs stand apart in the source and are kept apart here.

As to `N#Cc1ccc(CNC(=O)c2ccc3n(c2=O)CCN(CC2(S(=O)(=O)C4CC4)CC2)C3=O)cc1` [Example 1, N-(4-cyanobenzyl)-2-((1-(cyclopropylsulfonyl)cyclopropyl)methyl)-1,6-dioxo-2,3,4,6-tetrahydro-1H-pyrido[1,2-a]pyrazine-7-carboxamide], the 50% inhibitory concentration (IC50) (in general, the concentration that inhibits the measured activity by half) in test [1] was determined as 27.3 nM. The EC50 (as a rule, the midpoint of the concentration-response curve) in test [2] (Human betaherpesvirus 5, AD169, read-out: CMV-Luc Cellular EC50) was determined as 23.2 nM; in test [2] (Human betaherpesvirus 5, AD169, read-out: EC50 Human herpesvirus CMV), 24 nM.
